The text below walks through data of patent US20190000850A1, “COMBINATION CANCER THERAPY” (The Regents of the University of California, priority 2015, published 2019).

Structures are written as SMILES. Entries after “also recorded” stand apart in the source; their conditions may differ.

Data set [1] concerns CEM cells. Put plainly: Mass spectrometric assay of de novo (RNR) and salvage (dCK) contribution to dCTP and DNA-C. The format is cell-based.
Experimental: To analyze the differential utilization of de novo and nucleotide biosynthetic salvage pathways, cultured cells were incubated with stable isotope labeled DNA precursors. […] Extracted dNTP and DNA were analyzed in a triple quadrupole mass spectrometer (QQQ) using multiple reaction monitoring (MRM). The first (Q1) and third (Q3) quadrupoles function as mass filters while the second (Q2) quadrupole serves as a collision chamber. […] In Q2, the glycosidic bond of the selected dC is cleaved, releasing a protonated nucleobase (NB) fragment and a neutral deoxyribose (dR) molecule. The m/z specific NB fragments from dC is separated in Q3 and detected to generate ion chromatograms. […] Each identifier corresponded to a specific biosynthetic pathway and is defined as [x;y], where “x” is the number of heavy isotope-labeled atoms in NB and “y” is the number of heavy isotope atoms in dR. […] According to current biochemical maps of nucleotide metabolism, the [7;5] identifier can only arise from salvaging [U-^13C9,^15N3]dC into newly synthesized DNA. In contrast, a dC with a [0,5] identifier is a product of the de novo pathway. The ratio of the peak areas in the ion chromatograms of salvage [7;5] and de novo [0;5] identifiers describes the relative contributions of the two biosynthetic routes to the dCTP pool used for DNA replication.
(§4) The cells were incubated for 18 h or as indicated in the text before samples collection and processing.
Genomic DNA was extracted using the Quick-gDNA MiniPrep kit (Zymo Research, D3021) and hydrolyzed to nucleosides using the DNA Degradase Plus kit (Zymo Research, E2021) following manufacturer-supplied instructions. In the final step of DNA extraction, 50 μL of water was used to elute the DNA. A nuclease premix solution was prepared by mixing 10× buffer, DNA degradase Plus™ and water in the ratio of 2.5/1/1.5 (v/v/v). DNA hydrolysis reaction was prepared in mass spec vials by mixing 5 μL of the nuclease premix solution (5 U of enzyme) and 20 μL of eluted genomic DNA, the total volume becomes 25 μL. The samples were tapped and flicked downward prior to overnight before incubation at 37° C.
Cells were collected into microcentrifuge tube and centrifuged (450×g, 4 min, 4° C.). The supernatant was carefully aspirated. The cells were washed twice by the addition of 1 mL of cold PBS and centrifugation (450×g, 4 min 4° C.). PBS washes were aspirated. Thereafter, cells were lysed in 40 μL of 70% methanol/water (v/v), vortexed (30 s) and incubated on ice for 10 min. Then 40 μL of chloroform (Fisher) was added, vortexed (30 s) and incubated on ice for another 10 min. The samples were then centrifuged at max speed for 10 min at 4° C. Finally, the supernatant was transferred (≈25 μL) into a mass spec vial.
For genomic DNA and media analysis, an aliquot of DNA hydrolysis or media samples (20 μL) was injected directly onto a porous graphitic carbon column (Thermo Fisher Scientific Hypercarb, 100×2.1 mm, 5 μm particle size) equilibrated in solvent A (water/acetonitrile/formic acid, 95/5/0.2, v/v/v) and eluted (200 μL/min) with an increasing concentration of solvent B (acetonitrile/water/formic acid, 90/10/0.2, v/v/v): min/% B/flow rate (μL/min); 0/0/200, 5/0/200, 10/15/200, 20/15/200, 21/40/200, 25/50/200, 26/100/700, 30/100/700, 3I/O/700, 34/0/700, 35/0/200).
A further data set relates to PANC-1 PDAC cells. Put plainly: Cell-Titer-Glo viability assay, 72 h. The format is cell-based. The settings on record: Homo sapiens, PANC-1, read-out: IC50 of VE-822. As for the experimental part:
(§1) Cells were plated in a 384-well plate (1,000 cells/well for suspension cell lines and 500 cells/well for adherent cell lines in 30 μL). For suspension cell lines, the plate was incubated in 37° C. for 1 h to let the cells settle. For adherent cell lines, the plate was incubated overnight to allow the cells to seed. During incubation, drugs were diluted to desired concentration by serial dilution, vehicle condition was created by adding equivalent amount of DMSO. After incubation, 10 μL of diluted drugs were added to each well, and incubated for 72 h. After incubation, Cell TiterGlo reagent was added to each well according to manufacturer's instructions (Promega, CellTiter-Glo® Luminescent Cell Viability Assay). The plates were shaken for 2 min and incubated in dark for 8 min. Luminescence readings were obtained with luminometer (Molecular devices, SpectraMax).

In a further data set the test system is CEM T-ALL. Put plainly: Cell-Titer-Glo viability assay, 72 h. The format is cell-based. To be noted: read-out: IC50 of VE-822. As for the experimental part:
as §1

For another data set, the target named is ATM (Homo sapiens, UniProt Q13315). The settings on record: cited from earlier work.
Data set [2] concerns BCR-ABL p185^+/Arf^−/− pre B-ALL cells. Put plainly: Systemic pre B-ALL model in C57BL/6 mice, bioluminescence imaging, survival, body weight. The class given is in vivo. The settings on record: VE-822 40 mg/kg orally once daily. As for the experimental part:
All drugs for oral administration were solubilized in Prototype 9′ (PEG-200:Transcutol:Labrasol:Tween-80 mixed in 5:3:1:1 ratio) as single agents or in combination. For i.p. administration, drugs were solubilized in PEG-400 and 1 mM Tris-HCl at a 1:1 (v:v) ratio. Dasatinib (LC Laboratories) was solubilized in 80 mM citric acid (pH 3.1, Boulos et al.) and was administered at a dose of 10 mg/kg by oral gavage. 2×10^5 luciferase expressing p185 cells were injected intravenously into C57BL/6 female mice for leukemia induction. All drugs were administered starting 6 or, 7 days after intravenous cell inoculation, when animals had developed a significant leukemic burden as monitored by bioluminescence imaging (IVIS Bioluminescence Imaging scanner). Dosing schedules are indicated in the text and figure legends. Mice were observed daily; those that became moribund during the trials (paralysis of hind limbs, significant body weight loss) were sacrificed immediately. Kaplan-Meier curves and Bioluminescence quantifications were generated using GraphPad Prism (v6.0f for Mac).
Mice were anesthetized with 2% isoflurane followed by an intraperitoneal injection of 50 μL (50 mg/ml) substrate luciferin. Mice were imaged with IVIS Bioluminescence Imaging scanner after 10 minutes after luciferin administration. […]

Data set [3] has as its system Chk1 and Claspin phosphorylation in CEM T-ALL cells. Put plainly: Phosphoproteomics after G1 release. The class given is cell-based, human. To be noted: with and without DI-82; 6 and 12 h after G1 release. The protocol:
Cells were treated with a CDK4/6 inhibitor, PD-0332991 (Selleckchem) for 18 h to arrest in G1 phase. Cells were then washed twice with PBS and released in fresh media with treatment at a density of 0.5×10^6 cells/ml. Cells were collected at time point 6 and 12 h and solubilized using 0.5% sodium deoxycholate, 12 mM sodium lauryl sarcosine, and 50 mM triethylammonium bicarbonate pH 8.0 with 1 mL per 5×10^7 cells with trituration and vortexing. Cell lysates were heated at 95° C. for 5 min and water bath sonicated at RT for 5 min. Bicinchoninic acid protein assay (Pierce) was performed to determine protein concentration. […] Light, medium, and heavylabeled peptides were mixed 1:1:1, diluted with 0.1% formic acid to a final concentration of 3% acetonitrile and analyzed using 180 min data-dependent nLC-MS/MS on Thermo Orbitrap XL as later discussed. […] 5 uL of each SCX fraction was analyzed using 180 min data-dependent reverse-phase nLC-MS/MS on Thermo Orbitrap XL equipped with Eksigent Spark autosampler, Eksigent 2D nanoLC, and Phoenix ST Nimbus dual column source. […] Peptides were analyzed over 180 min linear gradient of 0-40% mobile phase B (97% acetonitrile, 3% dimethylsulfoxide, and 0.1% formic acid) at 300 nL/min. […]

The next data set relates to CCRF-CEM T-ALL cells. Put plainly: EdU pulse assay of cell cycle progression after release from G1 arrest. The format is cell-based. The settings on record: 12 h after release from G1. The protocol:
Following release from G1, cells progress to early, mid and late S phase (defined as S1, S2 and S3, respectively) and G2/M. By 18 h following release in drug-free media, 42.5% of cells progressed to S3. […] Thus, dCK represents a resistance mechanism to ATR inhibition.
Cells were treated with a CDK4/6 inhibitor, PD-0332991 (Selleckchem) for 18 h to arrest in G1 phase. Subsequently, cells were washed and released into fresh media containing 10% FBS to monitor the progression of synchronized cells throughout the cell cycle by flow cytometry analysis.
For measuring cell cycle progression of synchronous population of cells, cells were first arrested in G1 phase, then washed and released in treated media. Before collecting and fixing cells at various time points, cells were pulse-labeled with 10 μM EdU for 1 h, and then click-labeled with azide-Alexa Fluor 647 (Invitrogen; Click-iT EdU Flow cytometry kit) according to manufacturer's protocol. Total DNA content was assessed by staining with FxCycle-Violet (Invitrogen) at 1 μg/mL final concentration in PBS containing 2% FBS.

The subject of another data set is CEM-R-EYFP. Put plainly: DNA-G biosynthesis labeling in isogenic CEM-R line. The class given is cell-based. The settings on record: 6-TG treatment. The protocol:
(§2) We utilized an isogenic cell line, CEM-R (Owen 1992), which lacks the enzymes dCK and HPRT that are necessary for the salvage pathways for DNA-G biosynthesis. CEM-R cells were engineered to express enhanced yellow fluorescent protein (CEM-R-EYFP, a negative control) and human HPRT (CEM-R-HPRT) and were confirmed by WB. The labeled media contained […] [U-^13C6]glucose to represent the de novo contribution and 5 μM [^15N5]dG to represent salvage pathways, particularly HPRT-dependent nucleobase salvaging. CEM-R-EYFP relied exclusively on the de novo pathway for the DNA-G biosynthesis. In contrast, CEM-R-HPRT utilized both de novo and nucleobase salvage pathways nearly equally.
(§3) The pMSCV-HPRT-IRES-EYFP and pMSCV-TK1-IRES-EYFP plasmids were generated by inserting the human HPRT and TK1 coding sequence into the multiple cloning sites of the MSCV-IRES-EYFP plasmid, respectively. The pMSCV-hdCK-IRES-EYFP plasmid was generated as previously described (Laing RE 2010). Amphotropic retroviruses were generated by transient co-transfection of the MSCV retroviral plasmid and pCL-10A1 packaging plasmid into Phoenix-Ampho packaging cells. To generate EL4-EYFP, EL4-TK1, CEM-R-EYFP, CEM-R-dCK and CEM-R-HPRT lines, parental cells underwent spin-fection with the respective amphotropic retrovirus and were then sorted by flow cytometry to isolate pure populations of transduced cells. […]

The test system of another data set is CEM-R-HPRT. Put plainly: DNA-G biosynthesis labeling in isogenic CEM-R line. The class given is cell-based. To be noted: 6-TG treatment. The protocol:
as §2, §3

The test system of data set [4] is p185^BCR-ABLArf^−/− pre-B cells. Put plainly: dCTP pool and DNA-C measurement with [U-^13C9,^15N3]dC and [U-^13C6]glucose. To be noted: 3, 6, 9 and 12 h treatment. The format is cell-based, mouse.
Experimental: Therefore, p185^BCR-ABLArf^−/− pre-B cells were labeled with [U-^13C9,^15N3]dC and [U-^13C6]glucose to measure the contribution of salvage pathway via dCK and de novo pathway via RNR, respectively.
as §4
The subject of another data set is leukemia cell growth. Put plainly: IC50 (cytotoxicity assay) of RNR inhibitors, Table 1. The class given is cell-based. To be noted: 3-AP: cell type independent. As for the experimental part: as §1
Data set [5] can be described thus: Solubility study in phosphate buffer solution. The format is physicochemical. The settings on record: aqueous buffer.
Data set [6] relates to CEM cells. Put plainly: Inhibition of CEM cell growth by RNR inhibitors, 72 h. The format is cell-based. As for the experimental part: as §1
A further data set deals with CEM T-ALL cells. Put plainly: ssDNA (F7-26) and pH2A.X measurement by FACS. The class given is cell-based. To be noted: 3-AP 500 nM; 0.5, 4 and 18 h. The protocol: Cells were harvested and fixed and permeabilized with cytofix/cytoperm (BD biosciences) for 15 min in dark on ice. Cells were washed and subsequently resuspended in 100 μL 1× Perm/wash buffer (BD Sciences) for 15 min on ice. Cells were washed and subsequently resuspended in 50 μL with phospho-Histone H2A.X (Ser139) antibody conjugated to fluorochrome FITC (EMD Milipore, 1:800 dilutions in perm/wash) for 20 min in dark at ambient temperature. […] Cells were harvested and fixed with ice-cold methanol:PBS (6:1) for 24 h. Staining with F7-26 monoclonal antibody (Mab) was performed according to manufacturer's instructions (EMD Milipore). Fixed cells were resuspended in 250 μL of formamide and heated in a water bath at 75° C. for 10 min. Cells were then allowed to return to room temperature and then washed with 2 ml of 1% non-fat dry milk in PBS for 15 min. Subsequently, cells were resuspended in 100 μL of anti-ssDNA Mab F7-26 (EMD Milipore, 1:10 in 5% FBS in PBS) and incubated for 45 min at room temperature. Cells were washed with PBS and stained with 100 μL of fluorescence-conjugated goat anti-mouse IgM antibody (Santa Cruz Biotechnology, 1:50) for 45 min at room temperature.
(Flow cytometry measures light scatter and fluorescence of single cells or particles in a stream.)

The subject of data set [7] is dCK activity in p185^BCR-ABLArf^−/− pre-B cells. Put plainly: ^3H-FAC uptake to evaluate dCK activity. The class given is cell-based, mouse. The settings on record: after 1 h with 3-AP treatment.

Sequence of ATM (Q13315 whole entry, species assumed): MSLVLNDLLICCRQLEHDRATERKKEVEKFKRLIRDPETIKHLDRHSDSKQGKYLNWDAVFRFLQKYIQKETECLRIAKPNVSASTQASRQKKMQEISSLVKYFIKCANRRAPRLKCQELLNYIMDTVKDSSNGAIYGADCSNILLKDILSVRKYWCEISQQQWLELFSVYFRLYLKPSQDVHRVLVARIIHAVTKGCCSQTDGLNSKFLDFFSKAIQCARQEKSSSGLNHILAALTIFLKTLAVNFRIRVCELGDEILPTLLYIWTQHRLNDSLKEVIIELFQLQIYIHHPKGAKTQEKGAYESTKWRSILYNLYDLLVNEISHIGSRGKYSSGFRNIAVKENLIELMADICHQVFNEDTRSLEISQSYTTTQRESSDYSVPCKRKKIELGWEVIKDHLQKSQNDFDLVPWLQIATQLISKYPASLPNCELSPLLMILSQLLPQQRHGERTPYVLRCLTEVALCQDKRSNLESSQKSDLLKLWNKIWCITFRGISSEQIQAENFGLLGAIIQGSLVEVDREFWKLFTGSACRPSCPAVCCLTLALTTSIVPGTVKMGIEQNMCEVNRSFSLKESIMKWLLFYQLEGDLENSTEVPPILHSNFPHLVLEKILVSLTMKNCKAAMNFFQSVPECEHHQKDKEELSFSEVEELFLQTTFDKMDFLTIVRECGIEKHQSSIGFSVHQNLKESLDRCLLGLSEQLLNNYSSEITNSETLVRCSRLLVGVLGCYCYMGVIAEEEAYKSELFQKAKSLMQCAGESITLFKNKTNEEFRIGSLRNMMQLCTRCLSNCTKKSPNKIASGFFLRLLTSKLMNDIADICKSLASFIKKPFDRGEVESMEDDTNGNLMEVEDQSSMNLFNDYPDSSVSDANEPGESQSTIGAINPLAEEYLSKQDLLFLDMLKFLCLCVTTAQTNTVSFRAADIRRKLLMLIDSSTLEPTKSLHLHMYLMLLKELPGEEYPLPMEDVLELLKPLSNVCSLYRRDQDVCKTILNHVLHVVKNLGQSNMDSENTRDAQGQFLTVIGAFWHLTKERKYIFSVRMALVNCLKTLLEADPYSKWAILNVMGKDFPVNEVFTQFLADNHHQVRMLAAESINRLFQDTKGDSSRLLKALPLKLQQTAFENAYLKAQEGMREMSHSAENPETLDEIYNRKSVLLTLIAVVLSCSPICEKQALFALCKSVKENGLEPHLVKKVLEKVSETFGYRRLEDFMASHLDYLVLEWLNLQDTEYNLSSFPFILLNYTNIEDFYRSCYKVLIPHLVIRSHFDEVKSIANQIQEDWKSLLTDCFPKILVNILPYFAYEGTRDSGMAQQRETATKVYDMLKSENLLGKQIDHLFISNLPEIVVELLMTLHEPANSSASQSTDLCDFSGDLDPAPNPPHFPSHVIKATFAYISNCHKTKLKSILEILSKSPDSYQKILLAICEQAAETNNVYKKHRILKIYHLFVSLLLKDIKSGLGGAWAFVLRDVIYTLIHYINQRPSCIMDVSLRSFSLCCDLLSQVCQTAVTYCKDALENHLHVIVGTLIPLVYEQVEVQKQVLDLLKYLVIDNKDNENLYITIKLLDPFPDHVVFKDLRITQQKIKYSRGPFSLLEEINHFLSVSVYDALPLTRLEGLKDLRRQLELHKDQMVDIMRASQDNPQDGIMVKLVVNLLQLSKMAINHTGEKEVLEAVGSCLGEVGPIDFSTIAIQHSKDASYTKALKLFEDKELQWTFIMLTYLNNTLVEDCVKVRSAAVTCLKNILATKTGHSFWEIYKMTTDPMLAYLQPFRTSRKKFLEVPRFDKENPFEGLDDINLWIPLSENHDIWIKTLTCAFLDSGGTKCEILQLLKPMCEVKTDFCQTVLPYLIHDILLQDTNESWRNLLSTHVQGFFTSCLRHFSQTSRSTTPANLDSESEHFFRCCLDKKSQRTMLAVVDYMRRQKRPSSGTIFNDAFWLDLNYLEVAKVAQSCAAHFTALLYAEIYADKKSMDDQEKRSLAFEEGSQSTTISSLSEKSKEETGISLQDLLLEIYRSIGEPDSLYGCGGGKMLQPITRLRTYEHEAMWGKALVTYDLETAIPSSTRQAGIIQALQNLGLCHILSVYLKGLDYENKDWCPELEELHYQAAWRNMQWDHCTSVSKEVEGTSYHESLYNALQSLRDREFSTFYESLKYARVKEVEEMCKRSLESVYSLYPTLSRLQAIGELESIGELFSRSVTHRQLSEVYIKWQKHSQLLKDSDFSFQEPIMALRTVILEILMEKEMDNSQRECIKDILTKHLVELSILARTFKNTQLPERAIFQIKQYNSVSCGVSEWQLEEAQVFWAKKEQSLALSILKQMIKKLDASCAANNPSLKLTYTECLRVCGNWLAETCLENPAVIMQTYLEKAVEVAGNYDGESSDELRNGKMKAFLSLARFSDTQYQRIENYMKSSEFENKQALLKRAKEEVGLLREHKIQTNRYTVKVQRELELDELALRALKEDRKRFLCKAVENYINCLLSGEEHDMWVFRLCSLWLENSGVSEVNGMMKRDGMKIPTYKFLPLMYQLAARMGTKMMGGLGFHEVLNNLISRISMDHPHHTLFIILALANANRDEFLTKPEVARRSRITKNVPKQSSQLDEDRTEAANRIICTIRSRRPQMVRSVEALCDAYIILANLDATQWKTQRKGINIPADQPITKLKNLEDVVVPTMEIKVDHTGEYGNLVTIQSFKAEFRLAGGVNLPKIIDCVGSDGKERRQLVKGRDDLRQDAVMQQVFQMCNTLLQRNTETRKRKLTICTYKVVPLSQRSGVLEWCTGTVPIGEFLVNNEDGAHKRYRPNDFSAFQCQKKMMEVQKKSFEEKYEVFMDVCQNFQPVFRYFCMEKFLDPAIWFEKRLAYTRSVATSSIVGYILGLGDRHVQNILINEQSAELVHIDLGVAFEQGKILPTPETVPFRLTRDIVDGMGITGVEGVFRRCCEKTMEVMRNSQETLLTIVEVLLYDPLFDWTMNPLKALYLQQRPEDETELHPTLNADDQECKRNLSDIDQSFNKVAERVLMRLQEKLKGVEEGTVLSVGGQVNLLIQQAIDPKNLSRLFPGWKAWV

Broadly, the IC50 is the concentration that inhibits the measured activity by half. As to `CNCc1ccc(-c2cc(-c3nc(-c4ccc(S(=O)(=O)C(C)C)cc4)cnc3N)on2)cc1` [VE-822], the “effect on dCTP pool levels compared to untreated” value in the data set on CEM cells [1] (G1 released CEM cells) was “did not significantly impact”. The “total DNA-C labeling, less than untreated controls” value with CEM cells [1] (G1 released CEM cells) is 30%. Besides, the half-maximal inhibitory concentration (IC50) in the data set with PANC-1 PDAC cells was 3000 nM; with CEM T-ALL, about 300 nM; at ATM it was 34000 nM. In addition, the “efficacy of single agent therapy in vivo” value in data set [2] is reported as “not capable of eradicating p185 cells in vivo; also recorded: marginally efficacious”. Besides, the “phosphorylation of Chk1 and Claspin compared to untreated cells” value in data set [3] is given as “decreased phosphorylation”. Moreover, the “decrease in the number of cells in S2” value with CCRF-CEM T-ALL cells came out at 16%.

As for `Nc1nc2nc[nH]c2c(=S)[nH]1` [6-thioguanine], the “DNA-G biosynthesis” value in the data set with CEM-R-EYFP is on record as “remained unaffected”. In addition, the “decrease of de novo and salvage pathway labeling of DNA-G” value in the data set with CEM-R-HPRT was about 10 fold.

Broadly, the solubility is how much of the substance goes into solution per volume. Lower therefore signals a poorly soluble substance. On to `NC(=S)N/N=C/c1ncccc1N` [3-AP, 3-aminopyridine-2-carboxyaldehyde-thiosemicarbazone], for which the “dCTP pool” value in data set [4] is “increased their dCTP pool”. Besides, in the data set with CEM cells [1] (3-AP at 500 nM, 18 h), the “effect on de novo dCTP pool” value was “did not affect” and the “increase in salvage dCTP pool” value came out at 2 fold. Besides, in the data set on leukemia cell growth, the IC50 worked out at 1310 nM. In addition, the solubility in [5] is under 300 µg/mL. The “IC50 lower than the other RNR inhibitors (dT, GaM, HU)” value with CEM cells [6] lay in the range of 50 to 150 fold. Also, the “RS and DNA damage biomarker expression (ssDNA, pH2A.X), words” value with CEM T-ALL cells is given as “minimally induced”. The “increase in ^3H-FAC uptake” value in data set [7] was about 2.5 fold.
